Laboratory results: publication PMC11031820, “Structural determinants of the direct inhibition of GIRK channels by Sigma-1 receptor antagonist” (The Journal of Biological Chemistry, 2024)

Key:
Format in all cases: cell-based
GIRK2 [1] = molecular target: T1, GIRK2 (Mus musculus, UniProt P48542); experiment: two-electrode voltage clamp in Xenopus oocytes, GIRK2+Gβγ, […] compound
T1 construct: gene Kcnj6

GIRK4 [2] = molecular target: T2, GIRK4 (Rattus norvegicus, UniProt P48548); experiment: two-electrode voltage clamp in Xenopus oocytes, GIRK4+Gβγ, […] compound
T2 construct: gene Kcnj5
T2 sequence (P48548 whole entry): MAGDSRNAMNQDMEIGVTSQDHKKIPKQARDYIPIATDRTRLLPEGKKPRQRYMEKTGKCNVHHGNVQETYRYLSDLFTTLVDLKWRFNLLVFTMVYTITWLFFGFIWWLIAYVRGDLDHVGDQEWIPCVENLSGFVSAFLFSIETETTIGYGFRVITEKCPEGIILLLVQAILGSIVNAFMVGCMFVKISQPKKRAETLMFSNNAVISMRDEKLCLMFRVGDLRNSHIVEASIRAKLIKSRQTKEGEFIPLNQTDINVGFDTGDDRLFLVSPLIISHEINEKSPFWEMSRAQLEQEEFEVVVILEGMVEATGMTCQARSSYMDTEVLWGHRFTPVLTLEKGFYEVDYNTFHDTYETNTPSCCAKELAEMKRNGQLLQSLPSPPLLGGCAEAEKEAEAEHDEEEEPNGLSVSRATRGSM
T2 sequence (P62871 2-340 partner): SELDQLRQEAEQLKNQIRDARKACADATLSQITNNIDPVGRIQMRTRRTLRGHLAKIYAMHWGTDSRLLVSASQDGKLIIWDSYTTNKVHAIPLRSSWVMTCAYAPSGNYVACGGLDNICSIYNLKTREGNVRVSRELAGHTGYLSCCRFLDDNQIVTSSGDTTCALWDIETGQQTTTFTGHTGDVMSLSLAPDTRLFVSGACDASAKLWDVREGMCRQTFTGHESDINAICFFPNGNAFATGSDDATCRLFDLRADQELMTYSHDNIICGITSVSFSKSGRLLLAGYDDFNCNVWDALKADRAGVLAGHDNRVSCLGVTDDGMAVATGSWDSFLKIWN
T2 sequence (P63212 2-68 partner): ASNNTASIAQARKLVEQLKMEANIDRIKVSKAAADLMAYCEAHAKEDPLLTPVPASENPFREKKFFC

GIRK4 [3] = molecular target: T2, GIRK4; experiment: two-electrode voltage clamp in Xenopus oocytes, homomeric GIRK4 co-expressed with Gβγ
GIRK2 [4] = molecular target: T3, GIRK2 (Mus musculus, UniProt P48542, I82L); experiment: two-electrode voltage clamp in Xenopus oocytes, […] compound
T3 construct: gene Kcnj6
T3 sequence (P48542 whole entry I82L): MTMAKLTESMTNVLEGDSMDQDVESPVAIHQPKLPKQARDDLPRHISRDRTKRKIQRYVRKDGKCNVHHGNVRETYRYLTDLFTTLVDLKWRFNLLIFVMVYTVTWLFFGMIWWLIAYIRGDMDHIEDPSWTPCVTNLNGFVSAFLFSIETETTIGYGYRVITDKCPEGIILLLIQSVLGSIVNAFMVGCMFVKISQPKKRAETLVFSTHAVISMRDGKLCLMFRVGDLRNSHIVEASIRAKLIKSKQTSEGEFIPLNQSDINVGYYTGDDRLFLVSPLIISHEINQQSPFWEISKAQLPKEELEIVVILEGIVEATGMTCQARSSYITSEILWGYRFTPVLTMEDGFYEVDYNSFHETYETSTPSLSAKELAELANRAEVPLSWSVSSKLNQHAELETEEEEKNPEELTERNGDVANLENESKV
T3 sequence (P62871 2-340 partner): as the sequence (P62871 2-340 partner) above
T3 sequence (P63212 2-68 partner): as the sequence (P63212 2-68 partner) above

GIRK2 [5] = molecular target: T1, GIRK2; experiment: two-electrode voltage clamp in Xenopus oocytes, homomeric GIRK2 co-expressed with Gβγ
GIRK4 [6] = molecular target: T4, GIRK4 (Rattus norvegicus, UniProt P48548, E147Q); experiment: two-electrode voltage clamp in Xenopus oocytes, […] compound
T4 construct: gene Kcnj5
T4 sequence (P48548 whole entry E147Q): as the sequence (P48548 whole entry) above, with E147Q counted along it
T4 sequence (P62871 2-340 partner): as the sequence (P62871 2-340 partner) above
T4 sequence (P63212 2-68 partner): as the sequence (P63212 2-68 partner) above

T1 sequence (P48542 whole entry): as the sequence (P48542 whole entry I82L) above, with L82I counted along it
T1 sequence (P62871 2-340 partner): as the sequence (P62871 2-340 partner) above
T1 sequence (P63212 2-68 partner): as the sequence (P63212 2-68 partner) above

Compound | inhibition at 100 µM (GIRK2 [1]) [%] | inhibition at 100 µM (GIRK4 [2]) [%] | IC50 (GIRK4 [3]) [µM] | inhibition at 100 µM (GIRK2 [4]) [%] | IC50 (GIRK2 [5]) [µM] | two-electrode voltage clamp in Xenopus oocytes, 100 μM compound (GIRK4 [6])
CN1CCN(CCc2ccc(Cl)c(Cl)c2)CC1 [BD1063] | 31.1 ± 12 | 61.4 ± 2.6 | – | – | – | –
CN(C)CCN(C)CCc1ccc(Cl)c(Cl)c1 [BD1047] | – | – | 17.4 ± 3.7 | 61 ± 1.9 | 75.4 ± 9.7 | It was observed that GIRK4 E147Q maintained the strong inhibition as WT
